Molecular target: T1, IRE1α (Homo sapiens (Human), UniProt O75460)
Experiment: In vitro luciferase assay (IRE1α Endoribonuclease Nanoluciferase Assay)
Assay type: cell-based
Conditions: 293T cells, XBP1 luciferase reporter
Protocol: Compounds disclosed herein were assessed for disruption of IRE-1 signaling using a IRE1α Endoribonuclease Nanoluciferase Assay. Briefly, 2.5×10^6 293T cells were seeded in a 10 cm^2 tissue culture plate. About 24 hours later, the cells were transfected with Effectene. In a 15 mL Tube, the following was added: 2 μg XBP1 luciferase reporter plasmid (PGK-Luc2-P2A-XBP1u-Nanoluciferase-PEST); 300 μl EC buffer; and 16 μl Enhancer, followed by incubation at room temp for 5 minutes. Next, 60 μl Effectene (Qiagen 301427) was added, followed by incubation at room temperature for 10 minutes. 2.6 mL cDMEM media was added. Old media was aspirated from the cells, followed by addition of 7 mL fresh media. Full transfection mixture was added dropwise to cells. Cells were incubated for 6 hours, followed by trypsinization, centrifugation and resuspension in 11 mL media. 100 uL of cells were plated per a well in a 96 well plate. A day later, ER stressors of choice+/−inhibitors were added. To harvest, media was aspirated from cells completely, then 50 uL 1× passive lysis buffer (Promega: E1941) was added per well and put on shaker (300 rpm) for 30 minutes at room temperature. Cells were centrifuged, and 15 uL sample per well was added to a new, opaque white 384 well plate (Corning 3570). 15 uL OneGlo (nanoluciferase kit, Promega N1630) was added. Plates were spun down, placed on shaker (300 rpm) for 10 minutes. Plates were read on luminometer, 1000 ms integration time per well. 15 uL Stop and Glo (nanoluciferase kit) was added. Plates were spun down, placed on shaker (300 rpm) for 10 minutes. Plates were read on luminometer, 1000 ms second integration time per well. Recordings are provided below in Table 4

T1 sequence (O75460 19-977): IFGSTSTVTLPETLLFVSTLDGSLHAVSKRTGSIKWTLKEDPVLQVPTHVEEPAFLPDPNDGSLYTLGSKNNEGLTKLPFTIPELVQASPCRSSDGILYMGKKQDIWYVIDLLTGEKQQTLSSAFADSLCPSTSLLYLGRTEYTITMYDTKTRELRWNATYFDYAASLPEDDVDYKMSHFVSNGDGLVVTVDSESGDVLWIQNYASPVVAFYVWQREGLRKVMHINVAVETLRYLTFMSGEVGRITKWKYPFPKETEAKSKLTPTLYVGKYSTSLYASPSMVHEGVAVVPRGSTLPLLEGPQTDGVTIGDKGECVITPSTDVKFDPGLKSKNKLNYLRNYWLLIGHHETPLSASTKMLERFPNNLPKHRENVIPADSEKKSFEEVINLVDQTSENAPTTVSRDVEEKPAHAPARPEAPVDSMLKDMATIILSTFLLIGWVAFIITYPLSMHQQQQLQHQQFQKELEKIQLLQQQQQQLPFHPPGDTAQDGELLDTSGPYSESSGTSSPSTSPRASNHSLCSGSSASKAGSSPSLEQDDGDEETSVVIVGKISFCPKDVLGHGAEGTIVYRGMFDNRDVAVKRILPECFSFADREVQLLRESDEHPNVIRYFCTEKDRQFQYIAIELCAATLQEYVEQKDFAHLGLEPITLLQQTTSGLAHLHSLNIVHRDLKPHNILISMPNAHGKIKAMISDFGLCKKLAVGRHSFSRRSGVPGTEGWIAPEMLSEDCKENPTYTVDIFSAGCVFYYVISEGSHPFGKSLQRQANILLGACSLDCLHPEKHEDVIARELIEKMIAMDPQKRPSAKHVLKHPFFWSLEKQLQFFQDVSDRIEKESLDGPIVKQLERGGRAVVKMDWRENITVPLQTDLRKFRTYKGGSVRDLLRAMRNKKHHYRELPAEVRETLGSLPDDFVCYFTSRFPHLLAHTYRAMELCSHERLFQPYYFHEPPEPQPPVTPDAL

`CNC1CCC(Nc2ncc(/C=C/c3cc(F)c(NS(=O)(=O)c4ccccc4Cl)nc3OC)cn2)CC1` (centres unmarked) [Compound 59, 2-chloro-N-(3-fluoro-6-methoxy-5-((E)-2-(2-(((1r,4r)-4-(methylamino)cyclohexyl)amino)pyrimidin-5-yl)vinyl)pyridin-2-yl)benzenesulfonamide] and `COc1nc(NS(=O)(=O)c2ccccc2Cl)c(F)cc1/C=C/c1cnc(NC2CCC(N)CC2)nc1` (centres unmarked) [Compound 54, N-(5-((E)-2-(2-(((1r,4r)-4-aminocyclohexyl)amino)pyrimidin-5-yl)vinyl)-3-fluoro-6-methoxypyridin-2-yl)-2-chlorobenzenesulfonamide] fall in the same range of EC50: 50 to 100 nM for the first, 50 to 100 nM for the second.

`CN(C)C1CCC(Nc2ncc(/C=C/c3ccc(NS(=O)(=O)c4ccccc4Cl)nn3)cn2)CC1` (centres unmarked) [Compound 52, 2-chloro-N-(6-((E)-2-(2-(((1r,4r)-4-(dimethylamino)cyclohexyl)amino)pyrimidin-5-yl)vinyl)pyridazin-3-yl)benzenesulfonamide] and `CN(C)C1CCC(Nc2ncc(/C=C/c3ccc(NS(=O)(=O)c4cccc(Cl)c4Cl)nc3)cn2)CC1` (centres unmarked) [Compound 63, 2,3-dichloro-N-(5-((E)-2-(2-(((1r,4r)-4-(dimethylamino)cyclohexyl)amino)pyrimidin-5-yl)vinyl)pyridin-2-yl)benzenesulfonamide] cannot be ordered by EC50: 5 to 50 nM for the first, ≤ 5 nM for the second.

`COc1c(/C=C/c2cnc(NC3CCC(N(C)C)CC3)nc2)ccc(NS(=O)(=O)c2ccccc2Cl)c1F` (centres unmarked) [Compound 66, 2-chloro-N-(4-((E)-2-(2-(((1r,4r)-4-(dimethylamino)cyclohexyl)amino)pyrimidin-5-yl)vinyl)-2-fluoro-3-methoxyphenyl)benzenesulfonamide] and `COc1cc(NS(=O)(=O)c2ccccc2Cl)c(F)cc1/C=C/c1cnc(NC2CCC(N(C)C)CC2)nc1` (centres unmarked) [Compound 67, 2-chloro-N-(4-((E)-2-(2-(((1r,4r)-4-(dimethylamino)cyclohexyl)amino)pyrimidin-5-yl)vinyl)-2-fluoro-5-methoxyphenyl)benzenesulfonamide] cannot be ordered by EC50: ≤ 5 nM for the first, ≤ 5 nM for the second.

Compared with `Cc1nc(NS(=O)(=O)c2ccccc2Cl)c(F)cc1/C=C/c1cnc(NC2CCC(N)CC2)nc1` (centres unmarked) [Compound 58, N-(5-((E)-2-(2-(((1r,4r)-4-aminocyclohexyl)amino)pyrimidin-5-yl)vinyl)-3-fluoro-6-methylpyridin-2-yl)-2-chlorobenzenesulfonamide], `NC1CCC(Nc2ncc(/C=C/c3ccc(NS(=O)(=O)c4ccccc4Cl)c(F)c3)cn2)CC1` (centres unmarked) [Compound 3, N-(4-((E)-2-(2-(((1r,4r)-4-aminocyclohexyl)amino)pyrimidin-5-yl)vinyl)-2-fluorophenyl)-2-chlorobenzenesulfonamide] is lower in EC50: 50 to 100 nM for the first, ≤ 5 nM for the second.

`CN(C)C1CCC(Nc2ncc(/C=C/c3ccc(NS(=O)(=O)c4cccc(F)c4Cl)nc3)cn2)CC1` (centres unmarked) [Compound 68, 2-chloro-N-(5-((E)-2-(2-(((1r,4r)-4-(dimethylamino)cyclohexyl)amino)pyrimidin-5-yl)vinyl)pyridin-2-yl)-3-fluorobenzenesulfonamide] and `CN(C)C1CCC(Nc2ncc(/C=C/c3ccc(NS(=O)(=O)c4ccc(F)cc4Cl)nc3)cn2)CC1` (centres unmarked) [Compound 61, 2-chloro-N-(5-((E)-2-(2-(((1r,4r)-4-(dimethylamino)cyclohexyl)amino)pyrimidin-5-yl)vinyl)pyridin-2-yl)-4-fluorobenzenesulfonamide] cannot be ordered by EC50: ≤ 5 nM for the first, ≤ 5 nM for the second.

`Cc1nc(NS(=O)(=O)c2cnccc2Cl)ccc1/C=C/c1cnc(NC2CCC(N(C)C)CC2)nc1` (centres unmarked) [Compound 62, 4-chloro-N-(5-((E)-2-(2-(((1r,4r)-4-(dimethylamino)cyclohexyl)amino)pyrimidin-5-yl)vinyl)-6-methylpyridin-2-yl)pyridine-3-sulfonamide] and `COc1nc(NS(=O)(=O)c2cnccc2Cl)ccc1/C=C/c1cnc(NC2CCC(N(C)C)CC2)nc1` (centres unmarked) [Compound 56, 4-chloro-N-(5-((E)-2-(2-(((1r,4r)-4-(dimethylamino)cyclohexyl)amino)pyrimidin-5-yl)vinyl)-6-methoxypyridin-2-yl)pyridine-3-sulfonamide] fall in the same range of EC50: 50 to 100 nM for the first, 50 to 100 nM for the second.

First: COc1nc(NS(=O)(=O)c2cccc(F)c2Cl)ccc1/C=C/c1cnc(NC2CCC(N(C)C)CC2)nc1 (single isomer, unassigned) [Compound 53, 2-chloro-N-(5-((E)-2-(2-(((1r,4r)-4-(dimethylamino)cyclohexyl)amino)pyrimidin-5-yl)vinyl)-6-methoxypyridin-2-yl)-3-fluorobenzenesulfonamide]
Second: COc1cc(NS(=O)(=O)c2cnccc2Cl)ccc1/C=C/c1cnc(NC2CCC(N(C)C)CC2)nc1 (centres unmarked) [Compound 65, 4-chloro-N-(4-((E)-2-(2-(((1r,4r)-4-(dimethylamino)cyclohexyl)amino)pyrimidin-5-yl)vinyl)-3-methoxyphenyl)pyridine-3-sulfonamide]
The EC50 of the first is higher: 50 to 100 nM for the first, ≤ 5 nM for the second.

`COc1nc(NS(=O)(=O)c2ccccc2Cl)ccc1/C=C/c1cnc(NC2CCC(N3CCSCC3)CC2)nc1` (centres unmarked) [Compound 64, 2-chloro-N-(6-methoxy-5-((E)-2-(2-(((1r,4r)-4-thiomorpholinocyclohexyl)amino)pyrimidin-5-yl)vinyl)pyridin-2-yl)benzenesulfonamide] and `COc1nc(NS(=O)(=O)c2ccccc2Cl)ccc1/C=C/c1cnc(NC2CCC(N3CCOCC3)CC2)nc1` (centres unmarked) [Compound 57, 2-chloro-N-(6-methoxy-5-((E)-2-(2-(((1r,4r)-4-morpholinocyclohexyl)amino)pyrimidin-5-yl)vinyl)pyridin-2-yl)benzenesulfonamide] cannot be ordered by EC50: ≤ 5 nM for the first, ≤ 5 nM for the second.

In the case of `COc1nc(NS(=O)(=O)c2ccccc2Cl)ccc1/C=C/c1cnc(NC2CCC(N3CCCCC3)CC2)nc1` (centres unmarked) [Compound 60, 2-chloro-N-(6-methoxy-5-((E)-2-(2-(((1r,4r)-4-(piperidin-1-yl)cyclohexyl)amino)pyrimidin-5-yl)vinyl)pyridin-2-yl)benzenesulfonamide], the EC50 is reported as ≤ 5 nM.

Molecular target: T1, IRE1α
Experiment: In vitro FRET assay
Assay type: biochemical
Conditions: XBP1 RNA probe
Protocol: In vitro FRET assay was performed to evaluate the ability of select compounds to inhibit IRE1, the results of which are summarized in Table 3. To perform the in vitro FRET assay, 1× complete assay buffer (CAB; […], 50 mM sodium citrate pH 7.15, 1 mM magnesium acetate, 0.02% tween 20) was used to dilute SignalChem IRE1α protein to a final concentration of 2 nM. Selected compounds were serially diluted with DMSO in a non-binding black 384-well plate for a total of 15 ul in each well. 2 ul of the serially diluted compound or DMSO control were then added to new wells containing 98 ul of 1×CAB, for a total volume of 100 ul, 10 ul of which were then transferred to wells of a new plate. 5 ul of the diluted IRE1α was then added to each well. 5 ul of a […] XBP1 RNA probe was then added to each well. Fluorescence was then read over 30 minutes in kinetic mode (485/515 nm).
Two RNA probes were used, XBP1 wildtype (SEQ ID NO: 2) which is able to be spliced by active IRE1α or XBP1 mutant (SEQ ID NO: 3) which is unable to be spliced. Each probe contained a 5′ 6-FAM modification and a 3′ IOWA Black FQ modification.
A second FRET assay was performed to assess ATP-mediated inhibition. In this case, compounds and IRE1α were prepared and combined as discussed above, with the addition of ATP up to 1 mM final concentration. This mixture was incubated at room temperature for 60 minutes and then 5 ul of 400 nM XBP1 wildtype or mutant RNA probe was added. Plates were then read over 30 minutes in kinetic mode (485/515 nm) and rate of fluorescence increase calculated for different compound dilutions to determine IC50 (Table 3).

`N[C@H]1CC[C@H](Nc2ncc(CCc3ccc(NS(=O)(=O)c4ccccc4Cl)nn3)cn2)CC1` [Compound 7, N-(6-(2-(2-(((1r,4r)-4-aminocyclohexyl)amino)pyrimidin-5-yl)ethyl)pyridazin-3-yl)-2-chlorobenzenesulfonamide] and `Cc1cc(NS(=O)(=O)c2ccccc2Cl)ccc1CCc1cnc(NC2CCC(N)CC2)nc1` (centres unmarked) [Compound 6, N-(4-(2-(2-(((1r,4r)-4-aminocyclohexyl)amino)pyrimidin-5-yl)ethyl)-3-methylphenyl)-2-chlorobenzenesulfonamide] cannot be ordered by IC50: 1 to 5 nM for the first, ≤ 1 nM for the second.

`COc1cc(NS(=O)(=O)c2ccccc2Cl)cnc1CCc1cnc(NC2CCC(N)CC2)nc1` (centres unmarked) [Compound 18, N-(6-(2-(2-(((1r,4r)-4-aminocyclohexyl)amino)pyrimidin-5-yl)ethyl)-5-methoxypyridin-3-yl)-2-chlorobenzenesulfonamide] and `COc1nc(NS(=O)(=O)c2ccccc2Cl)ccc1/C=C/c1cnc(NC2CCC(O)CC2)nc1` (centres unmarked) [Compound 11, 2-chloro-N-(5-((E)-2-(2-(((1r,4r)-4-hydroxycyclohexyl)amino)pyrimidin-5-yl)vinyl)-6-methoxypyridin-2-yl)benzenesulfonamide] cannot be ordered by IC50: ≤ 1 nM for the first, 1 to 5 nM for the second.

`COc1nc(NS(=O)(=O)c2cnccc2Cl)ncc1C=Cc1cnc(NC2CCC(N(C)C)CC2)nc1` (centres unmarked) [Compound 43, 4-chloro-N-(5-(2-(2-(((1r,4r)-4-(dimethylamino)cyclohexyl)amino)pyrimidin-5-yl)vinyl)-4-methoxypyrimidin-2-yl)pyridine-3-sulfonamide] and `CN(C)C1CCC(Nc2ncc(C=Cc3cnc(NS(=O)(=O)c4ccccc4Cl)nc3)cn2)CC1` (centres unmarked) [Compound 40, 2-chloro-N-(5-(2-(2-(((1r,4r)-4-(dimethylamino)cyclohexyl)amino)pyrimidin-5-yl)vinyl)pyrimidin-2-yl)benzenesulfonamide] cannot be ordered by IC50: 1 to 5 nM for the first, ≤ 1 nM for the second.

Reference: patent publication US11945784B2, “IRE1 small molecule inhibitors” (Cornell University, priority 2018, dated 2024)
